# Source: patent US20160375006A1, “USES OF PARALOG-SELECTIVE INHIBITORS OF GSK3 KINASES” (priority 2012, published 2016)
# Where two headings read alike, the source gives them in different places.
# Columns and labels:
# [1] = molecular target: T1, GSK3α (Homo sapiens, UniProt P49840); details: for IC50: read-out: Caliper Assay, GSK3α IC50
# [2] = molecular target: T2, GSK3β (Homo sapiens, UniProt P49841); assay: biochemical
# [3] = molecular target: T1, GSK3α; assay: biochemical
# [4] = molecular target: T2, GSK3β
# [5] = Caliper assay, GSK3α over GSK3β
# [6] = Caliper assay, GSK3β over GSK3α
# T2 sequence (P49841 whole entry): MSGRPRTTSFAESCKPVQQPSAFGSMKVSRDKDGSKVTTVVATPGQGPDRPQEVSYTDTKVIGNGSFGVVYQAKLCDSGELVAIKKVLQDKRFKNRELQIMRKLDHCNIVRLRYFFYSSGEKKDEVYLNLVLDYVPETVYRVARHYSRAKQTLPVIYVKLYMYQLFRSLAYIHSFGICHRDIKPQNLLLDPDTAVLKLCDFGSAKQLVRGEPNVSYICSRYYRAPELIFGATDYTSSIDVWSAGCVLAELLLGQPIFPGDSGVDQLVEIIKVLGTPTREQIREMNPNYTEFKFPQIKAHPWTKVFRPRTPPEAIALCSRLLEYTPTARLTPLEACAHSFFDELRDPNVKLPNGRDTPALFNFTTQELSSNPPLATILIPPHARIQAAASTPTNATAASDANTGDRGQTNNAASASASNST
# T1 sequence (P49840 whole entry): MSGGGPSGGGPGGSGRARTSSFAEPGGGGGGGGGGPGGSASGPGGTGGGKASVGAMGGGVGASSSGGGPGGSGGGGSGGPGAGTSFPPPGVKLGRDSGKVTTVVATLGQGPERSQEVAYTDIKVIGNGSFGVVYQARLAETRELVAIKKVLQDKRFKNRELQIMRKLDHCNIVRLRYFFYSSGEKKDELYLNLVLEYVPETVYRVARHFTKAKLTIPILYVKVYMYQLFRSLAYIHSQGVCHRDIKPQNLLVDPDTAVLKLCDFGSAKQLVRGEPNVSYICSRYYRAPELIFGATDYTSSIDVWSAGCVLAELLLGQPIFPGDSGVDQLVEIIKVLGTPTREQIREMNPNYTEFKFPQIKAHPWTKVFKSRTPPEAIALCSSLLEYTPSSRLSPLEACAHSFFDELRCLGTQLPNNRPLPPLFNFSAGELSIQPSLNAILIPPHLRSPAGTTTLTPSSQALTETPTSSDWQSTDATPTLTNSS
SMILES,IC50 [2],IC50 [3],"GSK3β fold selectivity [4, 6]",also measured
Cc1[nH]nc2c1C1(CCCC1)C1=C(CC(C)(C)CC1=O)N2 [Compound 102],,,,GSK3α fold selectivity ([1]; GSK3α over GSK3β): 1.9 fold
Cc1[nH]nc2c1[C@](C)(c1ccccc1)C1=C(CC(C)(C)CC1=O)N2 [Compound 123],< 100 nM,,,GSK3α fold selectivity ([1]; GSK3α over GSK3β): 3.6 fold
CC1(C)CC(=O)C2=C(C1)Nc1n[nH]c(C3CC(F)(F)C3)c1[C@]21CCc2c(F)cccc21 [Compound 263],2060 nM,1490 nM,,GSK3α fold selectivity [1]: 1.4 fold
CC1(C)CC(=O)C2=C(C1)Nc1n[nH]c(Cl)c1C2(C)c1ccccc1 (stereo not shown) [Compound 110],,,,GSK3α fold selectivity ([1]; GSK3α over GSK3β): 1.8 fold
"Cc1[nH]nc2c1[C@@](c1ccccc1)(C(F)(F)F)C1=C(CC(C)(C)CC1=O)N2 [Compound 93, 1,6,6-trimethyl-9-phenyl-9-(trifluoromethyl)-5,6,7,9-tetrahydro-2H-pyrazolo[3,4-b]quinolin-8(4H)-one]",,,,IC50 [1]: < 100 nM
"Cc1[nH]nc2c1[C@@](C)(c1cccc(C#N)c1)C1=C(CC(C)(C)CC1=O)N2 [Compound 97, 3-(1,6,6,9-tetramethyl-8-oxo-4,5,6,7,8,9-hexahydro-2H-pyrazolo[3,4-b]quinolin-9-yl)benzonitrile]",,,,GSK3α fold selectivity ([1]; GSK3α over GSK3β): 5.9 fold
CC1(C)CC(=O)C2=C(C1)Nc1n[nH]c(C(F)(F)F)c1C2c1cccc(OC(F)(F)F)c1 (stereo not shown) [Compound 57],< 100 nM,,,IC50 [1]: < 100 nM
COC(=O)c1[nH]nc2c1C(C)(c1ccccc1)C1=C(CC(C)(C)CC1=O)N2 (stereo not shown) [Compound 104],,,,GSK3α fold selectivity ([1]; GSK3α over GSK3β): 1.5 fold
CC1(C)CC(=O)C2=C(C1)Nc1n[nH]c(Br)c1C2(C)c1ccccc1 (stereo not shown) [Compound 111],,,,GSK3α fold selectivity ([1]; GSK3α over GSK3β): 3.1 fold
CC1(C)CC(=O)C2=C(C1)Nc1n[nH]c(C3CC3)c1C2(C)c1cccc(C(F)(F)F)c1 (stereo not shown) [Compound 118],,,,GSK3α fold selectivity [1]: 1.1 fold
CC1(C)CC(=O)C2=C(C1)Nc1n[nH]c(C3CC(F)(F)C3)c1[C@@]21CCc2c(F)cccc21 [Compound 262],124 nM,542 nM,,GSK3β fold selectivity [4]: 4.4 fold
CC1(C)CC(=O)C2=C(C1)Nc1n[nH]c(C3CC(F)(F)C3)c1[C@@]21CCOc2ccccc21 [Compound 269],18 nM,164 nM,,GSK3β fold selectivity [4]: 9.1 fold
CC1(C)CC(=O)C2=C(C1)Nc1n[nH]c(C3CC(F)(F)C3)c1[C@]21CCOc2ccccc21 [Compound 270],210 nM,1630 nM,,GSK3β fold selectivity [4]: 7.8 fold
CC1(C)CC(=O)C2=C(C1)Nc1n[nH]c(C3CC(F)(F)C3)c1[C@@]21COc2ccccc21 [Compound 256],2 nM,13 nM,,GSK3β fold selectivity [4]: 6.5 fold
CC1(C)CC(=O)C2=C(C1)Nc1n[nH]c(C3CC(F)(F)C3)c1C21CCc2cc(F)ccc21 (racemic) [Compound 264],206 nM,1490 nM,,GSK3β fold selectivity [4]: 7.2 fold
CC1(C)CC(=O)C2=C(C1)Nc1n[nH]c(C3CC3)c1C2(C)c1ccccc1F (stereo not shown) [Compound 116],,,,GSK3α fold selectivity ([1]; GSK3α over GSK3β): 1.1 fold
CC1(C)CC(=O)C2=C(C1)Nc1n[nH]c(C3CC(F)(F)C3)c1[C@@]2(C)c1ccccc1 (stereo in doubt) [Compound 128],468 nM,8220 nM,17.6 fold,GSK3β fold selectivity ([4]; GSK3β over GSK3α): 17.6 fold

# The next lines start with results.
IC50 [2],IC50 [3],"GSK3β fold selectivity [4, 6]",SMILES,also measured
1030 nM,160 nM,,CC[C@@]1(c2ccccc2)C2=C(CC3(CCCCC3)CC2=O)Nc2n[nH]cc21 (stereo in doubt) [Compound 234],"GSK3α fold selectivity [1, 5]: 6.4 fold"
1890 nM,970 nM,,CCC[C@@]1(c2ccccc2)C2=C(CC(C)(C)CC2=O)Nc2n[nH]cc21 (stereo in doubt) [Compound 229],"GSK3α fold selectivity [1, 5]: 1.9 fold"
388 nM,58 nM,,CC[C@@]1(c2cccc(F)c2)C2=C(CC(C)(C)CC2=O)Nc2n[nH]cc21 (stereo in doubt) [Compound 214],"GSK3α fold selectivity [1, 5]: 6.7 fold"
30 nM,6 nM,,CC1(C)CC(=O)C2=C(C1)Nc1n[nH]cc1[C@]2(C)c1cccc(C#N)c1 (stereo in doubt) [Compound 209],"GSK3α fold selectivity [1, 5]: 5.0 fold"
1.7 nM,28 nM,16.5 fold,CC(C)(C)Cc1[nH]nc2c1[C@@]1(CCc3ccccc31)C1=C(CC(C)(C)CC1=O)N2 (stereo in doubt) [Compound 282],
16 nM,81 nM,5.1 fold,CC(C)c1[nH]nc2c1[C@@]1(CCc3ccccc31)C1=C(CC(C)(C)CC1=O)N2 (stereo in doubt) [Compound 242],
746 nM,1850 nM,2.5 fold,CC1(C)CC(=O)C2=C(C1)Nc1n[nH]c(C3CCCCC3)c1C2(C)c1ccccc1 (racemic) [Compound 303],
185 nM,607 nM,3.3 fold,CC1(C)CC(=O)C2=C(C1)Nc1n[nH]c(Cc3ccccc3)c1[C@]2(C)c1ccccc1 (stereo in doubt) [Compound 327],
76 nM,241 nM,3.2 fold,CC(C)c1[nH]nc2c1C(C)(c1ccccc1)C1=C(CC(C)(C)CC1=O)N2 (stereo not shown) [Compound 296],
12 nM,51 nM,4.3 fold,CC[C@@]1(c2cccc(C(C)(C)C)c2)C2=C(CC(C)(C)CC2=O)Nc2n[nH]cc21 (stereo in doubt) [Compound 226],
215 nM,1430 nM,6.7 fold,CC(C)(C)Cc1[nH]nc2c1C(C)(c1ccc(F)cc1)C1=C(CC(C)(C)CC1=O)N2 (racemic) [Compound 275],
90 nM,277 nM,3.1 fold,CCC(C)c1[nH]nc2c1C(C)(c1ccccc1)C1=C(CC(C)(C)CC1=O)N2 (stereo not shown) [Compound 299],
1050 nM,6700 nM,6.4 fold,CC(C)(C)Cc1[nH]nc2c1[C@@](C)(c1ccccc1)C1=C(CC(C)(C)CC1=O)N2 (stereo in doubt) [Compound 273],
14 nM,135 nM,9.6 fold,COc1ccccc1[C@H]1C2=C(CC(C)(C)CC2=O)Nc2n[nH]c(CC(C)(C)C)c21 (stereo in doubt) [Compound 279],
939 nM,8300 nM,8.8 fold,CN1C(=O)C2(C3=C(CC(C)(C)CC3=O)Nc3n[nH]c(CC(C)(C)C)c32)c2ccccc21 (stereo not shown) [Compound 287],
12300 nM,26900 nM,2.2 fold,CC[C@]1(c2ccccc2)C2=C(CC3(COC3)CC2=O)Nc2n[nH]cc21 (stereo in doubt) [Compound 238],
42 nM,462 nM,11.0 fold,CCc1ccccc1[C@@H]1C2=C(CC(C)(C)CC2=O)Nc2n[nH]c(C(C)C)c21 [Compound 322],
23 nM,191 nM,8.3 fold,COc1ccccc1[C@@H]1C2=C(CC(C)(C)CC2=O)Nc2n[nH]c(C3CC(F)(F)C3)c21 (stereo in doubt) [Compound 252],
41 nM,237 nM,5.8 fold,CC(C)Cc1[nH]nc2c1[C@](C)(c1ccccc1)C1=C(CC(C)(C)CC1=O)N2 (stereo in doubt) [Compound 307],
